{"source": "paper PMC5026167", "about": "“Characterizing Active Site Conformational Heterogeneity along the Trajectory of an Enzymatic Phosphoryl Transfer Reaction” (Angewandte Chemie (International Ed. in English), 2016)", "key": {"UmpK (UMP/CMP kinase) [1]": {"molecular_target": "T1, UmpK (UMP/CMP kinase) (Dictyostelium discoideum, UniProt P20425)", "T1 construct": "gene pyrK; recombinant, expressed and purified as in Supporting Information; details not in main text", "T1 sequence (P20425 whole entry)": "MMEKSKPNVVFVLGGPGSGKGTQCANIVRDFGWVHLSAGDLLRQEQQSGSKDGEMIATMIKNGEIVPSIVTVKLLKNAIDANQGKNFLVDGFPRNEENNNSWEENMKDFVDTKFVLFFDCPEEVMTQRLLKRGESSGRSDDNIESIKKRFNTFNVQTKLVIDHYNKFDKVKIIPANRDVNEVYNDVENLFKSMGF", "assay": "biochemical", "design": "fluorescence titration of nucleotide binding to UmpK (MANT-ADP fluorescence / displacement)", "conditions": "Mg-free", "description": "(§1) First, we defined and characterized stable states along the reaction coordinate (Supporting Information). One reference state is nucleotide‐free (apo) UmpK (Figure 1 a), where the catalytic side‐chains are expected to be very flexible because of the absence of any ligand, thus giving an indication of the upper limit of conformational entropy. An ideal reference for a substrate/product‐bound state is provided by UmpK in complex with the bi‐substrate inhibitor AP5U (Supporting Information; Figure 1 b), where a phosphate group covalently links ATP and UMP such that nucleotide‐like binding occurs but without turnover.11 The overall structure of UmpK in complex with AP5U is essentially identical to other nucleotide‐bound structures available (Figure 1 b). Despite minor differences in the lid loop conformation and the aliphatic part of the R137 side‐chain, the position of the central guanidino groups is nearly identical. […] The transition state of the phosphoryl transfer reaction is well‐represented by UmpK in complex with the TSA formed by ADP, UMP/CMP and an AlFx molecule that mimics the phosphoryl group being transferred (Figure 1 c).7 To further confirm the formation of a stable complex that captures the transition state structure, we performed functional studies including nucleotide exchange kinetics measurements in the presence and absence of aluminium fluoride (Figures 1 f and S1/S2, Table S1).  Figure 1 a) Nucleotide‐free UmpK (H. sapiens, PDB: 1TEV10). b) Overlay of UmpK in complex with the bi‐substrate inhibitor AP5U, (red, D. discoideum, PDB: 1UKE11), and in complex with ADP and CMP (orange, D. discoideum, PDB: 2UKD7). c) UmpK in complex with the TSA ADP:AlFx:CMP (D. discoideum, PDB: 3UKD7). In (a–c) arginine side‐chains are shown in yellow (numbering refers to UmpK from D. discoideum). d) Schematic representation of the reaction catalyzed by UmpK and the states studied here: nucleotide‐free (green), substrate/product‐bound (red), and the transition state (blue). e) AP5U binding to UmpK monitored by equilibrium displacement of fluorescent MANT‐ADP. Binding of AP5U (K D≤1.0 nM) generates a stable substrate/product‐like state. f) Nucleotide exchange kinetics measured by stopped flow. UmpK incubated with UMP and ADP in the presence of 0.5 mM AlFx (blue), 3 mM MgFx (grey) or in the absence of any fluoride (red) was mixed rapidly with the competing ligand MANT‐AP5A‐MANT."}, "UmpK (UMP/CMP kinase) [2]": {"molecular_target": "T1, UmpK (UMP/CMP kinase)", "assay": "biochemical", "design": "fluorescence titration, equilibrium binding / displacement of fluorescent MANT-ADP", "description": "as §1, with “MANT‐AP5A‐MANT. […] 3 Materials and Methods: 1. Mutagenesis, protein expression and purification: Arginine to lysine mutations were introduced into UmpK from Dictyostelium discoideum using the QuikChange® protocol. DNA sequencing was performed to verify the eight introduced mutations. Unlabeled [U-1 H,12C,14N] UmpK was expressed in LB medium, uniformly 15N-/ 13C-labeled [U-13C,15N] UmpK was expressed in M9 minimal medium using 2 g/L U-13C-glucose and 1 g/L 15NH4Cl as the sole carbon and nitrogen sources, respectively. Selectively labelled [13C,15N-Arg; U-12C,14N] UmpK and [13C,15N-Arg+Lys; U-12C,14N] UmpK with only (i) arginine residues or (ii) lysine and arginine residues isotopically labelled, respectively, were expressed in M9 minimal medium supplemented (i) 100 mg/L 15N-/ 13C-arginine or (ii) 100 mg/L 15N-/ 13C-arginine and 15N-/ 13C-lysine. All UmpK variants were purified as described previously using Blue Sepharose affinity chromatography and SourceQ anion exchange chromatography.” for “MANT‐AP5A‐MANT.”"}, "UmpK (UMP/CMP kinase) [3]": {"molecular_target": "T1, UmpK (UMP/CMP kinase)", "assay": "stopped-flow nucleotide exchange with MANT-AP5A-MANT", "type": "binding", "conditions": "dissociation rate of ADP and UMP together, no metal fluoride"}, "[4]": {"conditions": "with 250 uM ADP, read-out: wild-type (Mg-free) in presence of 250 uM ADP"}, "[5]": {"conditions": "5 mM MgCl2, alone, read-out: UmpK wild-type (5 mM MgCl2) Alone"}, "[6]": {"conditions": "with ADP, 5 mM MgCl2, 250 uM second nucleotide present, read-out: UmpK wild-type (5 mM MgCl2) in the presence of 250 uM second nucleotide"}, "[7]": {"conditions": "with CMP, 5 mM MgCl2, 250 uM second nucleotide present, read-out: UmpK wild-type (5 mM MgCl2) in the presence of 250 uM second nucleotide"}}, "note": "Like-named read-outs stand apart in the source and are kept apart here.", "data": [{"smiles": "Nc1ccn([C@@H]2O[C@H](COP(=O)(O)OP(=O)(O)O)[C@@H](O)[C@H]2O)c(=O)n1", "note": "[CDP]", "values": [{"measurement": "Kd", "setting": "UmpK (UMP/CMP kinase) [1]; [4]", "value": "64 ± 6", "unit": "µM"}, {"measurement": "Kd", "setting": "UmpK (UMP/CMP kinase) [2]; [5]", "value": "66 ± 11", "unit": "µM"}, {"measurement": "Kd", "setting": "UmpK (UMP/CMP kinase) [2]; [6]", "value": "17 ± 3", "unit": "µM"}]}, {"smiles": "Nc1ncnc2c1ncn2[C@@H]1O[C@H](COP(=O)(O)OP(=O)(O)O)[C@@H](O)[C@H]1O", "note": "[ADP]", "values": [{"measurement": "Kd", "setting": "UmpK (UMP/CMP kinase) [1]; with 250 uM CDP, read-out: wild-type (Mg-free) in presence of 250 uM CDP", "value": "49 ± 0.5", "unit": "µM"}, {"measurement": "k fast", "setting": "UmpK (UMP/CMP kinase) [3]; UMP present", "value": "~ 60 s^-1"}, {"measurement": "Kd", "setting": "UmpK (UMP/CMP kinase) [2]; [5]", "value": "80 ± 2", "unit": "µM"}, {"measurement": "Kd", "setting": "UmpK (UMP/CMP kinase) [2]; [7]", "value": "10 ± 1", "unit": "µM"}]}, {"smiles": "Nc1ccn([C@@H]2O[C@H](COP(=O)(O)O)[C@@H](O)[C@H]2O)c(=O)n1", "note": "[CMP]", "values": [{"measurement": "Kd", "setting": "UmpK (UMP/CMP kinase) [1]; [4]", "value": "205 ± 20", "unit": "µM"}, {"measurement": "Kd", "setting": "UmpK (UMP/CMP kinase) [2]; [5]", "value": "77 ± 11", "unit": "µM"}, {"measurement": "Kd", "setting": "UmpK (UMP/CMP kinase) [2]; [6]", "value": "23 ± 3", "unit": "µM"}]}, {"smiles": "O=c1ccn([C@@H]2O[C@H](COP(=O)(O)OP(=O)(O)O)[C@@H](O)[C@H]2O)c(=O)[nH]1", "note": "[UDP]", "values": [{"measurement": "Kd", "setting": "UmpK (UMP/CMP kinase) [1]; [4]", "value": "400 ± 45", "unit": "µM"}, {"measurement": "Kd", "setting": "UmpK (UMP/CMP kinase) [2]; [5]", "value": "600 ± 70", "unit": "µM"}, {"measurement": "Kd", "setting": "UmpK (UMP/CMP kinase) [2]; [6]", "value": "60 ± 14", "unit": "µM"}]}, {"smiles": "O=c1ccn([C@@H]2O[C@H](COP(=O)(O)O)[C@@H](O)[C@H]2O)c(=O)[nH]1", "note": "[UMP]", "values": [{"measurement": "k fast", "setting": "UmpK (UMP/CMP kinase) [3]; ADP present", "value": "~ 60 s^-1"}]}, {"smiles": "Nc1ncnc2c1ncn2[C@@H]1O[C@H](COP(=O)(O)OP(=O)(O)OP(=O)(O)O)[C@@H](O)[C@H]1O", "note": "[ATP]", "values": [{"measurement": "Kd", "setting": "UmpK (UMP/CMP kinase) [1]; with 250 uM CMP, read-out: wild-type (Mg-free) in presence of 250 uM CMP", "value": "68 ± 3", "unit": "µM"}, {"measurement": "Kd", "setting": "UmpK (UMP/CMP kinase) [2]; [5]", "value": "51 ± 2", "unit": "µM"}, {"measurement": "Kd", "setting": "UmpK (UMP/CMP kinase) [2]; [7]", "value": "7.3 ± 0.4", "unit": "µM"}]}]}
